Measurements as given in US8741888B2, “Sleep aid composition and method” (priority 2010, dated 2014).
Like-named read-outs stand apart in the source and are kept apart here.

Tests used:
[1] = tested on: human; conditions: cited from earlier work
[2] = previous range about 170-174 pounds held for ten years
[3] = tested on: human

OCCOCCN1CCN(C2=Nc3ccccc3Sc3ccccc32)CC1 [quetiapine]
dosage ultimately required after development of tolerance ([1]; quetiapine, Mariani et al. report): 800 mg
time after ingestion before the drug enters the system ([1]; quetiapine, background): about an hour or more
side effect at recommended amounts ([1]; quetiapine, Wikipedia, Seroquel prescribing information): somnolence (drowsiness)
body weight [2]: 184 pounds
drowsiness after getting up ([3]; quetiapine (Seroquel) alone, 75 mg reduced gradually to 50 mg): leaving them drowsy, especially in the mornings
drowsiness after getting up ([3]; quetiapine alone, 25 mg): did not leave them drowsy after getting up
time the drug had to be taken before going to bed ([3]; quetiapine alone, 25 mg): an hour to an hour and a half
grogginess after additional dose taken during the night ([3]; quetiapine alone, 25 mg plus additional quetiapine): left them a bit groggy during the early part of the day

Cc1ccc(-c2nc3ccc(C)cn3c2CC(=O)N(C)C)cc1 [zolpidem]
duration of effectiveness ([1]; zolpidem alone, background): about four
time of use after which tolerance can develop ([1]; zolpidem alone, background): just a few weeks
period of use after which the drug becomes addictive ([1]; zolpidem alone, Kirkwood, Mariani et al.): about two months or longer
effectiveness in maintaining sleep ([1]; zolpidem, Wikipedia, Rosenberg 2006): has not adequately demonstrated effectiveness in maintaining sleep
ability to sleep without the drug (dependence) ([3]; after extended use of zolpidem alone): unable to sleep without zolpidem
time asleep before getting up to empty their bladder ([3]; inventor, nightly use): four or even three
time kept asleep per dose ([3]; zolpidem (Ambien) alone): about four
